For one molecule, MIC results are on record in ChEMBL document CHEMBL1140598, “A review of anti-infective and anti-inflammatory chalcones” (Eur J Med Chem, 2007).

This experiment relates to Mycobacterium tuberculosis variant bovis. The experiment in a line: Antibacterial activity against Mycobacterium bovis. The class given is functional.

As to `C=CC(C)(C)c1cc(/C=C/C(=O)c2ccc(O)cc2)c(OC)cc1O` [LICOAGROCHACONE A], the MIC is ≤ 20 µg/mL.
